Entries after “also recorded” stand apart in the source; their conditions may differ. Where two headings read alike, the source gives them in different places. Where a SMILES comes first, the peptide text is derived from it. [ ]: non-standard residue; d: D form. The star is where a group is joined. Hexanoyl = CCCCCC(=O)*; Ahx = NCCCCCC(=O)O
Key:
scopolamine treated rats = assay: Morris water maze, scopolamine amnesia model; assay type: in vivo, rat
aged rats = assay: Morris water maze, aged rat model; assay type: in vivo; conditions: oral 2 mg/kg/day, 8 days, vs untreated
Procedure: FIG. 37. Dihexa improves spatial learning in aged rats. Group latencies to find the submerged platform in the Morris water maze task of spatial memory are shown. Five minutes before beginning testing 24 month old mixed sex (3 male and 3 female/group) Sprague Dawley rats were administered […] (2 mg/kg) orally by gavage (suspension in isotonic NaCl), on a daily basis. There were 5 trials per day for 8 days. The latency to find the pedestal was considered a measure of learning and memory. […] Swim speed was determined from these values.

MDCK cells = assay: Augmentation of HGF-dependent cell scattering in MDCK cells; assay type: cell-based, canine
Procedure: HGF mimetic activity was typically assessed by one or both of two methods: augmentation of HGF-dependent c-Met phosphorylation in HEK293 cells, or 2) augmentation of HGF-dependent cell scattering in MDCK cells. All the compounds in Family one were tested using the c-Met phosphorylation assay. […]
MDCK cells were grown to 100% confluency on the coverslips in six-well plates and washed twice with PBS. The confluent coverslips were then aseptically transferred to new six well plates containing 900 μl serum free DMEM. Norleual, Hinge peptide, and/or HGF (2.5 ng/ml) were added to appropriate wells. Control wells received PBS vehicle. Plates were incubated at 37° C. with 5% CO2 for 48 hours. Media was removed and cells were fixed with methanol. Cells were stained with Diff-Quik Wright-Giemsa (Dade-Behring, Newark, Del.) and digital images were taken. Coverslips were removed with forceps and more digital images were captured. Pixel quantification of images was achieved using Image J and statistics were performed using Prism 5 and InStat v.3.05.

Blood stability studies = assay type: in vitro ADME, rat; conditions: data not shown
HGF = target: T1, HGF (Homo sapiens, UniProt P14210); assay: HGF dimerization; assay type: biochemical; conditions: Dihexa, 30 minutes in the presence of heparin
T1 construct: purchased R&D Systems (Minneapolis, Minn.)
Procedure: HGF dimerization was assessed using PAGE followed by silver staining (Kawas et al., 2011). Human HGF at a concentration of 0.08 ng/μl with or without 6-AH analogs was incubated with heparin at a final concentration of 5 μg/ml. Loading buffer was then added to each sample and the mixture separated by native PAGE using gradient Criterion XT precast gels (4-12% Bis-Tris; Biorad Laboratories, Hercules, Calif.). Next the gel was silver stained for the detection of the HGF monomers and dimers. Bands were quantitated from digital images using a UVP phosphoimager (Upland, Calif.).

[1] = Microsomal metabolism, rat liver microsomes; assay type: in vitro ADME; conditions: pooled rat liver microsomes, n=3
[2] = Brain uptake of 3H-dihexa after carotid infusion; assay type: in vivo, rat; conditions: 30 minutes after infusion
Procedure: FIG. 32. […] Rats fitted with a carotid cannula were anesthetized and infused with 0.5 ml of isotonic saline containing 10 μCi of ^3H-dihexa and 2 μCi ^14C-Inulin, a vascular marker. Thirty minutes after infusion the rats were decapitated, the brains removed, and various brain regions dissected. The tissues were then weighed and solubilized with NCS, an organic protein solubilizing agent, and 10 ml of scintillation was added. Samples were counted with a scintillation counter using two different windows to quantitate both ^3H and ^14C counts. ^3H/^14C ratios were determined so that blood derived dihexa contamination of tissues could be determined. […] The average ^3H/^14C for blood was 1687. Mean+/−S.E.M.: n=4.

hippocampal neurons [3] = assay: Protection of hippocampal neurons from growth factor deprivation; assay type: cell-based; conditions: starved 72 hrs, +/− HGF sub-threshold
Procedure: FIG. 46. […] Dissociated hippocampal neurons were starved for 72 hrs+/−HGF at sub-threshold concentrations […] and or Dihexa at 2 different concentrations 10^−8M and 10^−8M. (**p<0.001.*** p<0.000I; Mean+/−SEM).

hippocampal neurons [4] = assay: Protection of hippocampal neurons from oxidative stress (H2O2); assay type: cell-based; conditions: 100 μM H2O2, 24 hrs, +/− HGF sub-threshold
Procedure: FIG. 47. […] Dissociated hippocampal neurons were treated with 100 μM H2O2 for 24 hrs+/−HGF at sub-threshold concentrations […] and or Dihexa at 2 different concentrations 10^−8M and 10^−8M. (+p<0.05, ++p<0.0I; Mean+/−SEM).

6-OHDA rat = assay: 6-OHDA lesioned rat, motor tests; assay type: in vivo
Procedure: FIG. 48. Dihexa restores performance in the rope hang test. After 2 weeks of 6-OHDA lesion, rats were treated with either 0.5 mg/kg or equivalent volumes of the vehicle ip.
FIG. 49. […] Baseline was calculated from 4 naïve animals to get the pre-op baseline for normal un-lesioned animals. 2 animals were lesioned with 6-OHDA in the right Hemisphere. 14 days post-op, treatment with vehicle started. 2 animals were lesioned with 6-OHDA in the right Hemisphere. 14 days post-op, treatment with Dihexa started. Animals were tested every other day. Dosing regimen (2 mg/kg by oral gavage/48 hrs).

hippocampal neurons [5] = assay: Spinogenesis in mRFP-β-actin transfected dissociated hippocampal neurons; assay type: cell-based, rat; conditions: 10^−12 M, acute 30 minute application on DIV12; vehicle 17.4
[6] = icv, scopolamine 70 nmol, Dihexa 300 pmol, Hinge 300 pmol, vehicle 43.0 s

T1 sequence (P14210 32-728): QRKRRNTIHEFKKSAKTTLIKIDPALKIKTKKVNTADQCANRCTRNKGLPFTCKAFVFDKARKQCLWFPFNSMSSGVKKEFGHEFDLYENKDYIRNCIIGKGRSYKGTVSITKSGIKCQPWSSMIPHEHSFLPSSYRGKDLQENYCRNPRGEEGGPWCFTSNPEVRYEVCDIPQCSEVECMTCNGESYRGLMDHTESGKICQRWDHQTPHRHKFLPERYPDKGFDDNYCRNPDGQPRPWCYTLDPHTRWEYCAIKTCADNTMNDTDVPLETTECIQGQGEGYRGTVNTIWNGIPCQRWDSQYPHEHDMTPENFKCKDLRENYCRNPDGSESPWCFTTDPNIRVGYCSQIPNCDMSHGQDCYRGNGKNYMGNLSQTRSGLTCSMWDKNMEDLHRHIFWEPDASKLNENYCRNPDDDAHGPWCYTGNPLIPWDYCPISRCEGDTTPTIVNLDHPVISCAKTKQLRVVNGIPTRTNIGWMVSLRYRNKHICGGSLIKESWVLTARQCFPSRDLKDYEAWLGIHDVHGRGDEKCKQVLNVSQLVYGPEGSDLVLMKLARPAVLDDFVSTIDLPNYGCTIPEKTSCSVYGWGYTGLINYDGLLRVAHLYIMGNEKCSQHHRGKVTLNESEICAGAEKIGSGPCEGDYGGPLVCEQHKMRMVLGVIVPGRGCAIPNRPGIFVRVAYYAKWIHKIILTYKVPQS

SMILES: CCCCCC(=O)N[C@@H](Cc1ccc(O)cc1)C(=O)N[C@H](C(=O)NCCCCCC(N)=O)[C@@H](C)CC [Dihexa, N-hexanoic-Tyr-Ile-(6)-aminohexanoic amide] (Hexanoyl-Tyr-Ile-[Ahx]-NH2)
- latency to find the pedestal in the water maze (reversal of scopolamine deficits) (scopolamine treated rats; ICV 10 pmoles (low dose)): but not 10 pmoles
- latency to find the pedestal in the water maze (reversal of scopolamine deficits) (scopolamine treated rats; ICV 100 pmoles (high dose), daily, 8 days): reversed scopolamine-dependent learning deficits; also recorded: completely overcome the scopolamine deficits
- group latency to find the submerged platform (scopolamine treated rats; icv 0.1 nmol after scopolamine, days 5-8): significantly improved performance
- group latency to find the submerged platform (scopolamine treated rats; icv 1 nmol after scopolamine): different from the scopolamine group
- time in the target quadrant, day 9 probe trial (scopolamine treated rats; icv 1 nmol after scopolamine, vs vehicle control): not different
- mean latency to find the pedestal, final day of training (scopolamine treated rats; [6]): 62.3 s
- mean latency to find the pedestal, fourth day of training (scopolamine treated rats; [6]): 63.0 s
- mean latency to find the pedestal, day one of training (scopolamine treated rats; icv, scopolamine 70 nmol, Dihexa 300 pmol, Hinge 300 pmol, vehicle 89.3 s): 115.2 s
- group latency to find the submerged platform (scopolamine treated rats; ip 0.05 mg/kg after scopolamine): not different than the scopolamine group
- group latency to find the submerged platform (scopolamine treated rats; ip 0.25 mg/kg after scopolamine): different than the scopolamine
- group latency to find the submerged platform (scopolamine treated rats; ip 0.50 mg/kg after scopolamine, 0.5 mg/kg): different than the scopolamine; also recorded: not different than the vehicle control group
- time in the target quadrant, day 9 probe trial (scopolamine treated rats; ip delivery, each dose group vs scopolamine→PBS): Each of the treatment groups was different than the scopolamine
- latency to find the pedestal in the water maze (reversal of scopolamine deficits) (scopolamine treated rats; oral 1.25 mg/kg (low dose), days 3-8): partially reversed
- latency to find the pedestal in the water maze (reversal of scopolamine deficits) (scopolamine treated rats; oral 2 mg/kg/day (high dose), 2 mg/kg/day): no different than controls; also recorded: completely overcome the scopolamine deficits; also recorded: completely reversed the scopolamine-dependent learning deficit
- time in the target quadrant, day 9 probe trial (scopolamine treated rats; oral delivery, both dose groups vs scopolamine→PBS): Both of the treatment groups were different than the scopolamine
- water maze performance (latency) of aged rats (aged rats): preformed significantly better in the water maze than untreated rats; also recorded: performed significantly better than untreated controls; also recorded: significantly different than that of the non-treated rats
- augmentation of HGF-dependent MDCK cell scattering (MDCK cells): stimulate MDCK cell scattering
- augmentation of HGF-dependent MDCK cell scattering (MDCK cells; listed as N-hexanoyl-Tyr-Ile-(6) aminohexamide): spectacularly augment HGF-dependent MDCK cell scattering
- stable in the blood (Blood stability studies): over 5 hours
- inhibition of HGF dimerization (HGF): blocks HGF dimerization
- average half-life, Phase I metabolism [1]: 8.49 h
- average intrinsic clearance (Clin) [1]: 2.72 µL/min/mg
- concentration of dihexa in brain regions compared to blood ([2]; 3H/14C ratios): all brain regions concentrated dihexa
- average 3H/14C ratio for blood ([2]; 10 μCi 3H-dihexa and 2 μCi 14C-Inulin, n=4): 1687
- protection of neurons from growth factor deprivation (hippocampal neurons [3]): protects neurons from growth factor deprivation
- protection of neurons from oxidative stress (hippocampal neurons [4]): protects neurons from oxidative stress
- performance in the rope hang test (6-OHDA rat; 0.5 mg/kg ip, 2 weeks after 6-OHDA lesion): completely restored the performance
- motor deficits in the 6-OHDA rat (6-OHDA rat; 2 mg/kg by oral gavage/48 hrs, from 14 days post-op): reverses motor deficits
- mean spine numbers per 50 μm dendrite length (hippocampal neurons [5]): 23.9 spines per 50 μm dendrite length
